# Laboratory results: patent US20230089867A1, “CYCLIC PENTAMER COMPOUNDS AS PROPROTEIN CONVERTASE SUBTILISIN/KEXIN TYPE 9 (PCSK9) INHIBITORS FOR THE TREATMENT OF METABOLIC DISORDER” (Novartis AG, priority 2018, published 2023)
# Target: human PCSK9 (Homo sapiens, UniProt Q8NBP7)
# Test: PCSK9 ligand binding TR-FRET assay (interference with binding of human PCSK9 to human LDLR)
# Settings: for Max % inhibition: PCSK9 FRET assay, efficacy (Amax), 100% = 1 uM unlabeled human PCSK9, 0% = DMSO; for IC50: TR-FRET, human PCSK9 Alexa Fluor 647 / human LDLR extracellular domain-Europium Kryptate, read-out: PCSK9 FRET Assay IC50
# Method in brief: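 Threefold compound dilutions were pre-incubated 30 min with PCSK9, after which 4 nM Europium Kryptate-tagged human LDLR ectodomain was added for a further 2 h.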
# human PCSK9, sequence (Q8NBP7 153-692): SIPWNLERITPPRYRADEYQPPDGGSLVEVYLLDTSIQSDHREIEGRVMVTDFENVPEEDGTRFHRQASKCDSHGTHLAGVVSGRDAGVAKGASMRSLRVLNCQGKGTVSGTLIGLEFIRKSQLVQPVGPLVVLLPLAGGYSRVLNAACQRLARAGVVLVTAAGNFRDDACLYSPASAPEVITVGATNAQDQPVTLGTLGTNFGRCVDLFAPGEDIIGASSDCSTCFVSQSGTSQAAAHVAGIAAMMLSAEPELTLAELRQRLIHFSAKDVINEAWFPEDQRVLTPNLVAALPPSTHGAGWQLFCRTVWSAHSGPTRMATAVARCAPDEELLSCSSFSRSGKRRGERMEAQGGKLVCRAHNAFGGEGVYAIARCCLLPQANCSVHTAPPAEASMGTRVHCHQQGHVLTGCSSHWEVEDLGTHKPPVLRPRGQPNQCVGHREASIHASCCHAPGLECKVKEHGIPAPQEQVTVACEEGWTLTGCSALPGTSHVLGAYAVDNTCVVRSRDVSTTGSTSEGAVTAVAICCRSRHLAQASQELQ
# human PCSK9, sequence (Q8NBP7 31-152 partner limits assumed): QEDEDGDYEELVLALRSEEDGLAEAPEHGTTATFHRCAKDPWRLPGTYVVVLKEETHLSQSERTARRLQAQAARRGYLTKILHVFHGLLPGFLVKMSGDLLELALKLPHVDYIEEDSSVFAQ
Max % inhibition,IC50,Compound
85.89%,1.6 nM,"COC[C@@H]1NC(=O)[C@H](C)N(Cc2ccc(Cl)cc2Oc2ccc(-c3cnc(CN(C)C)n3C)cc2)C(=O)C[C@@H](CC#N)C(=O)N(C)[C@H]2CCCC[C@@H]2NC(=O)C[C@H](Cc2ccc(Cl)cc2)N(C)C1=O [Compound 89, 2-((4S,7S,10S,14R,16aS,20aS)-11-(4-chloro-2-(4-(2-((dimethylamino)methyl)-1-methyl-1H-imidazol-5-yl)phenoxy)benzyl)-4-(4-chlorobenzyl)-7-(methoxymethyl)-5,10,16-trimethyl-2,6,9,12,15-pentaoxodocosahydrobenzo[l][1,4,7,11,14]pentaazacyclooctadecin-14-yl)acetonitrile]"
101.52%,2.1 nM,"COC[C@@H]1NC(=O)[C@H](CCCN(C)C)N(Cc2ccc(Cl)cc2Oc2ccc(-c3cnc(CN(C)C)n3C)cc2)C(=O)C[C@@H](Cc2ccccc2)C(=O)N(C)[C@@H](C)[C@H](C)NC(=O)C[C@H](Cc2ccc(Cl)cc2)N(C)C1=O [Compound 90, (2S,5S,8S,12S,13S,16R)-16-benzyl-1-(4-chloro-2-(4-(2-((dimethylamino)methyl)-1-methyl-1H-imidazol-5-yl)phenoxy)benzyl)-8-(4-chlorobenzyl)-2-(3-(dimethylamino)propyl)-5-(methoxymethyl)-7,12,13,14-tetramethyl-1,4,7,11,14-pentaazacyclooctadecane-3,6,10,15,18-pentaone]"
86.95%,168 nM,"COC[C@@H]1NC(=O)[C@@H](CCN(C)C)N(Cc2ccc(Cl)cc2Oc2ccc(-c3cnc(CN(C)C)n3C)cc2)C(=O)C[C@@H](Cc2ccccn2)C(=O)N(C)[C@H]2CCCC[C@@H]2NC(=O)C[C@H](Cc2ccc(Cl)cc2)N(C)C1=O [Compound 91, (4S,7S,10R,14R,16aS,20aS)-11-(4-chloro-2-(4-(2-((dimethylamino)methyl)-1-methyl-1H-imidazol-5-yl)phenoxy)benzyl)-4-(4-chlorobenzyl)-10-(2-(dimethylamino)ethyl)-7-(methoxymethyl)-5,16-dimethyl-14-(pyridin-2-ylmethyl)hexadecahydrobenzo[l][1,4,7,11,14]pentaazacyclooctadecine-2,6,9,12,15(3H)-pentaone]"
61.54%,64.6 nM,"COC[C@@H]1NC(=O)[C@H](C)N(Cc2ccc(Cl)cc2Oc2ccc(-c3cnc(OC(C)C)n3C)cc2)C(=O)C[C@@H](Cc2ccccc2)C(=O)N(C)[C@@H](C)CNC(=O)C[C@H](Cc2ccc(Cl)cc2)N(C)C1=O [Compound 92, (2S,5S,8S,13S,16R)-16-benzyl-1-(4-chloro-2-(4-(2-isopropoxy-1-methyl-1H-imidazol-5-yl)phenoxy)benzyl)-8-(4-chlorobenzyl)-5-(methoxymethyl)-2,7,13,14-tetramethyl-1,4,7,11,14-pentaazacyclooctadecane-3,6,10,15,18-pentaone]"
96.70%,6.3 nM,"COC[C@@H]1NC(=O)[C@H](CCC(=O)N2CCOCC2)N(Cc2ccc(Cl)cc2Oc2ccc(-c3cnc(CN(C)C)n3C)cc2)C(=O)C[C@@H](Cc2ccccc2)C(=O)N(C)[C@H]2CCCC[C@@H]2NC(=O)C[C@H](Cc2ccc(Cl)cc2)N(C)C1=O [Compound 93, (4S,7S,10S,14R,16aS,20aS)-14-benzyl-11-(4-chloro-2-(4-(2-((dimethylamino)methyl)-1-methyl-1H-imidazol-5-yl)phenoxy)benzyl)-4-(4-chlorobenzyl)-7-(methoxymethyl)-5,16-dimethyl-10-(3-morpholino-3-oxopropyl)hexadecahydrobenzo[l][1,4,7,11,14]pentaazacyclooctadecine-2,6,9,12,15(3H)-pentaone]"
104.90%,2.4 nM,"COC[C@@H]1NC(=O)[C@H](CCN2CCOCC2)N(Cc2ccc(Cl)cc2Oc2ccc(-c3cnc(CN(C)C)n3C)cc2)C(=O)C[C@@H](Cc2ccccc2)C(=O)N(C)[C@@H](C)[C@H](C)NC(=O)C[C@H](Cc2ccc(Cl)cc2)N(C)C1=O [Compound 94, (2S,5S,8S,12S,13S,16R)-16-benzyl-1-(4-chloro-2-(4-(2-((dimethylamino)methyl)-1-methyl-1H-imidazol-5-yl)phenoxy)benzyl)-8-(4-chlorobenzyl)-5-(methoxymethyl)-7,12,13,14-tetramethyl-2-(2-morpholinoethyl)-1,4,7,11,14-pentaazacyclooctadecane-3,6,10,15,18-pentaone]"
104.58%,0.8 nM,"COC[C@@H]1NC(=O)[C@H](CCC(=O)N2CC3(COC3)C2)N(Cc2ccc(Cl)cc2Oc2ccc(-c3cnc(CN(C)C)n3C)cc2)C(=O)C[C@@H](Cc2ccccc2)C(=O)N(C)[C@@H](C)CNC(=O)C[C@H](Cc2ccc(Cl)cc2)N(C)C1=O [Compound 95, (2S,5S,8S,13S,16R)-16-benzyl-1-(4-chloro-2-(4-(2-((dimethylamino)methyl)-1-methyl-1H-imidazol-5-yl)phenoxy)benzyl)-8-(4-chlorobenzyl)-5-(methoxymethyl)-7,13,14-trimethyl-2-(3-oxo-3-(2-oxa-6-azaspiro[3.3]heptan-6-yl)propyl)-1,4,7,11,14-pentaazacyclooctadecane-3,6,10,15,18-pentaone]"
78.14%,304 nM,"COC[C@@H]1NC(=O)[C@H](C)N(Cc2ccc(Cl)cc2Oc2ccc(-c3cnc(CN(C)C)n3C)cc2)C(=O)C[C@@H](CC(F)=C(F)F)C(=O)N(C)[C@H]2CCCC[C@@H]2NC(=O)C[C@H](Cc2ccc(Cl)cc2)N(C)C1=O [Compound 96, (4S,7S,10S,14S,16aS,20aS)-11-(4-chloro-2-(4-(2-((dimethylamino)methyl)-1-methyl-1H-imidazol-5-yl)phenoxy)benzyl)-4-(4-chlorobenzyl)-7-(methoxymethyl)-5,10,16-trimethyl-14-(2,3,3-trifluoroallyl)hexadecahydrobenzo[l][1,4,7,11,14]pentaazacyclooctadecine-2,6,9,12,15(3H)-pentaone]"
90.83%,2.2 nM,"COC[C@@H]1NC(=O)[C@H](CC(F)F)N(Cc2ccc(Cl)cc2Oc2ccc(-c3cnc(CN4CCCC4)n3C)cc2)C(=O)C[C@@H](Cc2ccccc2)C(=O)N(C)[C@@H](C)CNC(=O)C[C@H](Cc2ccc(Cl)cc2)N(C)C1=O [Compound 97, (2S,5S,8S,13S,16R)-16-benzyl-1-(4-chloro-2-(4-(1-methyl-2-(pyrrolidin-1-ylmethyl)-1H-imidazol-5-yl)phenoxy)benzyl)-8-(4-chlorobenzyl)-2-(2,2-difluoroethyl)-5-(methoxymethyl)-7,13,14-trimethyl-1,4,7,11,14-pentaazacyclooctadecane-3,6,10,15,18-pentaone]"
98.16%,1.9 nM,"COC[C@@H]1NC(=O)[C@H](C)N(Cc2ccc(Cl)cc2Oc2ccc(-c3cnc(CN(C)C)n3C)cc2)C(=O)C[C@@H](Cc2cc(F)cc(F)c2F)C(=O)N(C)[C@@H](C)CNC(=O)C[C@H](Cc2ccc(Cl)cc2)N(C)C1=O [Compound 98, (2S,5S,8S,13S,16R)-1-(4-chloro-2-(4-(2-((dimethylamino)methyl)-1-methyl-1H-imidazol-5-yl)phenoxy)benzyl)-8-(4-chlorobenzyl)-5-(methoxymethyl)-2,7,13,14-tetramethyl-16-(2,3,5-trifluorobenzyl)-1,4,7,11,14-pentaazacyclooctadecane-3,6,10,15,18-pentaone]"
104.20%,1.6 nM,"COC[C@@H]1NC(=O)[C@H](C)N(Cc2ccc(Cl)cc2Oc2ccc(-c3cnc(CN(C)C)n3C)cc2)C(=O)C[C@@H](Cc2ccccc2C#N)C(=O)N(C)[C@@H](C)[C@H](C)NC(=O)C[C@H](Cc2ccc(Cl)cc2)N(C)C1=O [Compound 99, 2-(((2S,5S,8S,12S,13S,16R)-1-(4-chloro-2-(4-(2-((dimethylamino)methyl)-1-methyl-1H-imidazol-5-yl)phenoxy)benzyl)-8-(4-chlorobenzyl)-5-(methoxymethyl)-2,7,12,13,14-pentamethyl-3,6,10,15,18-pentaoxo-1,4,7,11,14-pentaazacyclooctadecan-16-yl)methyl)benzonitrile]"
105.41%,5.4 nM,"COC[C@@H]1NC(=O)[C@H](C)N(Cc2ccc(Cl)cc2Oc2ccc(-c3cnc(CN(C)C)n3C)cc2)C(=O)C[C@@H](CC23CC(C2)C3)C(=O)N(C)[C@H]2CCCC[C@@H]2NC(=O)C[C@H](Cc2ccc(Cl)cc2)N(C)C1=O [Compound 100, (4S,7S,10S,14R,16aS,20aS)-14-(bicyclo[1.1.1]pentan-1-ylmethyl)-11-(4-chloro-2-(4-(2-((dimethylamino)methyl)-1-methyl-1H-imidazol-5-yl)phenoxy)benzyl)-4-(4-chlorobenzyl)-7-(methoxymethyl)-5,10,16-trimethylhexadecahydrobenzo[l][1,4,7,11,14]pentaazacyclooctadecine-2,6,9,12,15(3H)-pentaone]"
94.32%,1.1 nM,"COC[C@@H]1NC(=O)[C@H](CCN2CCOCC2)N(Cc2ccc(Cl)cc2Oc2ccc(-c3cnc(CN(C)C)n3C)cc2)C(=O)C[C@@H](Cc2ccccc2)C(=O)N(C)[C@H]2CCCC[C@@H]2NC(=O)C[C@H](Cc2ccc(Cl)cc2)N(C)C1=O [Compound 101, (4S,7S,10S,14R,16aS,20aS)-14-benzyl-11-(4-chloro-2-(4-(2-((dimethylamino)-methyl)-1-methyl-1H-imidazol-5-yl)phenoxy)benzyl)-4-(4-chlorobenzyl)-7-(methoxymethyl)-5,16-dimethyl-10-(2-morpholinoethyl)hexadecahydrobenzo-[l][1,4,7,11,14]pentaazacycloocta-decine-2,6,9,12,15(3H)-pentaone]"
101.56%,1.5 nM,"COC[C@@H]1NC(=O)[C@H](C)N(Cc2ccc(C)cc2Oc2ccc(-c3cnc(CN(C)C)n3C)cc2)C(=O)C[C@@H](Cc2ccccc2)C(=O)N(C)[C@@H](C)[C@H](C)NC(=O)C[C@H](Cc2ccc(Cl)cc2)N(C)C1=O [Compound 102, (2S,5S,8S,12S,13S,16R)-16-benzyl-8-(4-chlorobenzyl)-1-(2-(4-(2-((dimethylamino)methyl)-1-methyl-1H-imidazol-5-yl)phenoxy)-4-methylbenzyl)-5-(methoxymethyl)-2,7,12,13,14-pentamethyl-1,4,7,11,14-pentaazacyclooctadecane-3,6,10,15,18-pentaone]"
